Assay results: paper PMC5662472 (Chemical communications (Cambridge, England), 2017)

How the values were obtained:
[1] = biological target: Helicobacter pylori α1–3/4-fucosyltransferase (Hp3/4FT) (Helicobacter pylori, UniProt Q9L8S4); experiment: HPLC fucosyltransferase assay; settings: acceptor; co-substrate GDP-Fuc; labelled compound
[2] = test system: C[C@@H]1O[C@H](OP(=O)(O)OP(=O)(O)OC[C@H]2O[C@@H](n3cnc4c(=O)[nH]c(N)nc43)[C@H](O)[C@@H]2O)[C@@H](O)[C@H](O)[C@@H]1O; experiment: purified protein; settings: donor; co-substrate LacNAcβPro2AA (best acceptor)

For Galβ3GlcNAcβPro2AA, the Km [1] was 1320 ± 240 µM.

“Helicobacter pylori α1–3/4-fucosyltransferase (Hp3/4FT) (Helicobacter pylori)” showed a Km [2] of 860 ± 130 µM, a kcat [2] of 6.02 ± 0.26 s⁻¹ and a kcat/Km [2] of 7010 M⁻¹ s⁻¹.

Work on LacNAcβPro2AA yielded a Km [1] of 460 ± 70 µM.

LacβPro2AA gave a Km [1] of 990 ± 180 µM.
